Holding throughout (assay type): functional
The test system of experiment [1] is Echinochloa oryzicola. Description: Herbicidal activity against Echinochloa oryzicola assessed as killing at 10 g/ha by pot test.
Experiment [2] concerns Schoenoplectiella juncoides. Description: Herbicidal activity against Schoenoplectiella juncoides assessed as killing at 10 g/ha by pot test.
For experiment [3], the system named is Lindernia procumbens. The experiment can be described thus: Herbicidal activity against Lindernia procumbens assessed as killing at 1 g/ha by pot test.
The subject of experiment [4] is Cyperus difformis. Description: Herbicidal activity against Cyperus difformis assessed as killing at 10 g/ha by pot test.
For experiment [5], the system named is Sagittaria pygmaea. The experiment can be described thus: Herbicidal activity against Sagittaria pygmaea assessed as killing at 10 g/ha by pot test.
Experiment [6] has as its system Rotala indica. The experiment can be described thus: Herbicidal activity against Rotala indica assessed as killing at 10 g/ha by pot test.
In experiment [7] the test system is Schoenoplectiella juncoides. The experiment can be described thus: Herbicidal activity against Schoenoplectiella juncoides assessed as killing at 1 g/ha by pot test.
In experiment [8] the test system is Cyperus difformis. Description: Herbicidal activity against Cyperus difformis assessed as killing at 1 g/ha by pot test.
For experiment [9], the system named is Lindernia procumbens. Description: Herbicidal activity against Lindernia procumbens assessed as killing at 10 g/ha by pot test.
For experiment [10], the system named is Echinochloa oryzicola. Description: Herbicidal activity against Echinochloa oryzicola assessed as killing at 1 g/ha by pot test.
Experiment [11] deals with Sagittaria pygmaea. The experiment can be described thus: Herbicidal activity against Sagittaria pygmaea assessed as killing at 1 g/ha by pot test.
Experiment [12] deals with Rotala indica. Description: Herbicidal activity against Rotala indica assessed as killing at 1 g/ha by pot test.

As for `COc1cc(OC)nc(NC(=O)NS(=O)(=O)c2c(C)cc3ccccn23)n1`, the Activity with Echinochloa oryzicola [1] was 76%; in experiment [2] it was 51%; in the experiment with Lindernia procumbens [3], 1%; in the experiment with Cyperus difformis [4], 76%; in the experiment on Sagittaria pygmaea [5], 76%; in the experiment on Rotala indica [6], 51%. Besides, the Activity was 1% in [7]; 1% with Cyperus difformis [8]; 51% in the experiment on Lindernia procumbens [9]; 1% with Echinochloa oryzicola [10]; 51% in the experiment with Sagittaria pygmaea [11]; 1% in the experiment with Rotala indica [12].
Take `COc1cc(OC)nc(NC(=O)NS(=O)(=O)c2c(C)cn3ccccc23)n1`: the Activity in the experiment on Echinochloa oryzicola [1] is recorded as 1%; in experiment [2], 1%; in the experiment with Lindernia procumbens [3] it was 1%; with Cyperus difformis [4], 51%; with Sagittaria pygmaea [5], 76%; in the experiment on Rotala indica [6], 1%. Also, the Activity stood at 1% in [7]; 1% in the experiment with Cyperus difformis [8]; 1% with Lindernia procumbens [9]; 1% in the experiment with Echinochloa oryzicola [10]; 51% in the experiment with Sagittaria pygmaea [11]; 1% in the experiment with Rotala indica [12].
Consider `COc1cc(OC)nc(NC(=O)NS(=O)(=O)c2ncc3ccccn23)n1`, for which the Activity in the experiment with Echinochloa oryzicola [1] is 1%; in experiment [2], 51%; in the experiment with Lindernia procumbens [3] it was 1%; in the experiment with Cyperus difformis [4] it was 1%; in the experiment with Sagittaria pygmaea [5] it was 76%; in the experiment with Rotala indica [6] it was 51%. Moreover, the Activity is recorded as 1% in experiment [7]; 1% in the experiment on Cyperus difformis [8]; 51% in the experiment on Lindernia procumbens [9]; 1% with Echinochloa oryzicola [10]; 1% in the experiment with Sagittaria pygmaea [11]; 51% in the experiment with Rotala indica [12].
In the case of `COc1cc(OC)nc(NC(=O)NS(=O)(=O)c2nc(C)n3ccccc23)n1`, the Activity is 1% in the experiment on Echinochloa oryzicola [1]; 1% in experiment [2]; 1% with Lindernia procumbens [3]; 76% in the experiment on Cyperus difformis [4]; 51% in the experiment with Sagittaria pygmaea [5]; 76% with Rotala indica [6]. For the same compound, the Activity in [7] is on record as 1%; in the experiment on Cyperus difformis [8], 1%; in the experiment with Lindernia procumbens [9] it was 1%; with Echinochloa oryzicola [10] it was 1%; with Sagittaria pygmaea [11], 51%; with Rotala indica [12] it was 51%.
For `COc1cc(OC)nc(NC(=O)NS(=O)(=O)c2ncn3ccccc23)n1`, the Activity in the experiment on Echinochloa oryzicola [1] was 51%; in experiment [2] it was 1%; with Lindernia procumbens [3], 1%; in the experiment on Cyperus difformis [4], 76%; in the experiment with Sagittaria pygmaea [5], 76%; with Rotala indica [6] it was 76%. The Activity in experiment [7] worked out at 1%; in the experiment with Cyperus difformis [8], 51%; in the experiment on Lindernia procumbens [9] it was 51%; with Echinochloa oryzicola [10], 1%; with Sagittaria pygmaea [11], 1%; with Rotala indica [12], 51%.
For `COc1cc(OC)nc(NC(=O)NS(=O)(=O)c2c(C)nn3ccccc23)n1`, the Activity worked out at 88% in the experiment on Echinochloa oryzicola [1]; 100% in experiment [2]; 76% in the experiment with Lindernia procumbens [3]; 88% in the experiment with Cyperus difformis [4]; 88% with Sagittaria pygmaea [5]; 88% in the experiment with Rotala indica [6]. Also, the Activity is 76% in experiment [7]; 88% in the experiment with Cyperus difformis [8]; 88% in the experiment with Lindernia procumbens [9]; 88% in the experiment with Echinochloa oryzicola [10]; 88% in the experiment with Sagittaria pygmaea [11]; 88% in the experiment on Rotala indica [12].
As for `COc1cc(OC)nc(NC(=O)NS(=O)(=O)c2c(C)nn3cccnc23)n1`, the Activity in the experiment with Echinochloa oryzicola [1] worked out at 88%; in [2], 100%; in the experiment on Lindernia procumbens [3] it was 88%; in the experiment with Cyperus difformis [4] it was 88%; with Sagittaria pygmaea [5], 88%; with Rotala indica [6] it was 88%. In addition, the Activity turned out to be 76% in [7]; 88% in the experiment on Cyperus difformis [8]; 88% in the experiment with Lindernia procumbens [9]; 88% with Echinochloa oryzicola [10]; 76% in the experiment with Sagittaria pygmaea [11]; 76% with Rotala indica [12].
Regarding `COc1cc(OC)nc(NC(=O)NS(=O)(=O)c2c(C)nc3n(C)ccn23)n1`, the Activity in the experiment on Echinochloa oryzicola [1] is given as 88%; in experiment [2], 76%; with Lindernia procumbens [3], 51%; with Cyperus difformis [4], 76%; with Sagittaria pygmaea [5] it was 76%; in the experiment with Rotala indica [6] it was 88%. Besides, the Activity in [7] turned out to be 1%; in the experiment on Cyperus difformis [8], 1%; with Lindernia procumbens [9], 51%; in the experiment on Echinochloa oryzicola [10] it was 1%; with Sagittaria pygmaea [11], 1%; in the experiment on Rotala indica [12] it was 51%.
On to `COc1cc(OC)nc(NC(=O)NS(=O)(=O)c2c(C)nc3scnn23)n1`, for which the Activity in the experiment on Echinochloa oryzicola [1] came to 88%; in experiment [2], 88%; in the experiment with Lindernia procumbens [3] it was 76%; with Cyperus difformis [4], 88%; in the experiment with Sagittaria pygmaea [5] it was 88%; with Rotala indica [6], 88%. For the same compound, the Activity was 51% in experiment [7]; 1% in the experiment on Cyperus difformis [8]; 88% with Lindernia procumbens [9]; 76% in the experiment on Echinochloa oryzicola [10]; 1% with Sagittaria pygmaea [11]; 76% in the experiment on Rotala indica [12].
On to `COc1cc(OC)nc(NC(=O)NS(=O)(=O)c2c(C)nc3cccnn23)n1`, for which the Activity in the experiment with Echinochloa oryzicola [1] was found to be 100%; in experiment [2], 100%; with Lindernia procumbens [3], 88%; with Cyperus difformis [4], 100%; in the experiment with Sagittaria pygmaea [5], 100%; in the experiment with Rotala indica [6], 88%. In addition, the Activity in experiment [7] is on record as 100%; in the experiment with Cyperus difformis [8] it was 88%; in the experiment on Lindernia procumbens [9], 88%; with Echinochloa oryzicola [10] it was 88%; in the experiment with Sagittaria pygmaea [11], 88%; in the experiment on Rotala indica [12], 88%.

The values above are taken from ChEMBL document CHEMBL3046317, “Synthesis and Herbicidal Activity of Sulfonylureas with Fused Heterocyclic Moiety” (1994).
